According to patent US20230338307A1, “PROPHYLACTIC AGENT, AMELIORATING AGENT, AND THERAPEUTIC AGENT FOR DRY EYE” (TSUBOTA LABORATORY, INC., priority 2020, published 2023):

What was measured:
[1] = reported for dry eye treatment; cited from earlier work
dry eye model [2] = assay: Fluorescein staining score, 0.2% benzalkonium chloride dry eye model, Comparative Study 2 (Example 5); format: in vivo, mice; settings: two days after start, compared with control; 0.03% apocynin, 0.5% (w/v) hyaluronic acid or 3% diquafosol sodium twice a day; FIG. 11A
Excerpt: After acclimating male C57BL6 mice (7 weeks old) to the experimental environment, those with almost uniform weight values and no eye abnormalities were divided into the following groups (n=3 to 4). • 7 weeks old/normal (non-dry eye group) • 7 weeks old/dry eye model+control (solvent eye drop) group • 7 weeks old/dry eye model+0.003% (w/v) apocynin eye drop group • 7 weeks old/dry eye model+0.03% (w/v) apocynin eye drop group • 7 weeks old/dry eye model+3% diquafosol sodium eye drop group • 7 weeks old/dry eye model+0.5% (w/v) hyaluronic acid eye drop group A dry eye model was created by instilling 3 μL of the 0.2% benzalkonium chloride solution into each of both eyes twice a day for 8 days. Then, the control group received PBS alone, and the test group received 0.003% (w/v), 0.03% (w/v) apocynin and 0.5% (w/v) hyaluronic acid in PBS. The 3% diquafosol sodium eye drop was instilled into each of both eyes at 3 μL, twice a day for 9 days. In Example 5, 1, 2, 5, and 9 days after the start of instillation of the comparative test drug, 1 μL of 0.1% sodium fluorescein solution was instilled into each of both eyes. Fluorescein-stained images were observed under a blue filter using a slit lamp (Kowa Co., Ltd., SL-17), and the degree of corneal epithelial damage was scored.

dry eye model [3] = assay: Fluorescein staining score, benzalkonium chloride dry eye model, Comparative Study 1 (Example 4); format: in vivo, mice; settings: 3 days after start of instillation, compared to control; 0.1% (w/v) apocynin or 0.5% (w/v) hyaluronic acid twice a day; FIG. 9A
Experimental: After acclimating male C57BL6 mice (7 weeks old) to the experimental environment, those with almost uniform weight values and no eye abnormalities were divided into the following groups (n=4). • 7 weeks old/normal (non-dry eye group) • 7 weeks old/dry eye model+control (solvent eye drop) group • 7 weeks old/dry eye model+0.1% (w/v) apocynin eye drop group • 7 weeks old/dry eye model+0.5% (w/v) hyaluronic acid eye drop group A dry eye model was prepared by instilling the benzalkonium chloride solution at 3 μL each eye, twice a day for 8 days. After that, the control group received the 0.5% methylcellulose solution alone, and the test group received 0.1% (w/v) apocynin or 0.5% (w/v) hyaluronic acid suspended in the 0.5% methylcellulose solution twice a day for 15 days at 3 μL for each of both eyes. In Example 4, 1, 3, 6, 8, and 15 days after the start of instillation of the comparative test drug, 1 μL of the 0.1% fluorescein sodium solution was instilled into each of both eyes. Fluorescein-stained images were observed under a blue filter using a slit lamp (Kowa Co., Ltd., SL-17), and the degree of corneal epithelial damage was scored.

## O=C(NC(Cc1cc(=O)[nH]c2ccccc12)C(=O)O)c1ccc(Cl)cc1 (centres unmarked) [rebamipide]
[1]
  side effect specific to ingredients: causes dysgeusia

## O=c1ccn([C@@H]2O[C@H](COP(=O)(O)OP(=O)(O)OP(=O)(O)OP(=O)(O)OC[C@H]3O[C@@H](n4ccc(=O)[nH]c4=O)[C@H](O)[C@@H]3O)[C@@H](O)[C@H]2O)c(=O)[nH]1 [diquafosol sodium, reference compound]
Dry eye model [2]
  fluorescein staining score (corneal epithelial damage): no effect was observed
[1]
  side effect specific to ingredients: causes ocular discharge and eye pain

## hyaluronic acid [reference compound]
Dry eye model [3]
  fluorescein staining score (corneal damage): no effect was observed
Dry eye model [2]
  fluorescein staining score (corneal epithelial damage): no effect was observed
